Assay results published in ChEMBL document CHEMBL6153174, “Design and Synthesis of Novel Deazapurine DNMT 1 Inhibitors with In Vivo Efficacy in DLBCL” (J Med Chem, 2025).
Active and inactive are the calls of the source. The rule behind the calls is not given here.

Tests used:
[1] = biological target: T1, Histone-lysine N-methyltransferase EHMT2 (Homo sapiens, UniProt Q96KQ7); test: Inhibition of G9a (unknown origin) preincubated for 15 mins followed by substrate and [3H-SAM] addition and measured after 60 mins by microbeta analysis
T1 sequence (Q96KQ7 whole entry): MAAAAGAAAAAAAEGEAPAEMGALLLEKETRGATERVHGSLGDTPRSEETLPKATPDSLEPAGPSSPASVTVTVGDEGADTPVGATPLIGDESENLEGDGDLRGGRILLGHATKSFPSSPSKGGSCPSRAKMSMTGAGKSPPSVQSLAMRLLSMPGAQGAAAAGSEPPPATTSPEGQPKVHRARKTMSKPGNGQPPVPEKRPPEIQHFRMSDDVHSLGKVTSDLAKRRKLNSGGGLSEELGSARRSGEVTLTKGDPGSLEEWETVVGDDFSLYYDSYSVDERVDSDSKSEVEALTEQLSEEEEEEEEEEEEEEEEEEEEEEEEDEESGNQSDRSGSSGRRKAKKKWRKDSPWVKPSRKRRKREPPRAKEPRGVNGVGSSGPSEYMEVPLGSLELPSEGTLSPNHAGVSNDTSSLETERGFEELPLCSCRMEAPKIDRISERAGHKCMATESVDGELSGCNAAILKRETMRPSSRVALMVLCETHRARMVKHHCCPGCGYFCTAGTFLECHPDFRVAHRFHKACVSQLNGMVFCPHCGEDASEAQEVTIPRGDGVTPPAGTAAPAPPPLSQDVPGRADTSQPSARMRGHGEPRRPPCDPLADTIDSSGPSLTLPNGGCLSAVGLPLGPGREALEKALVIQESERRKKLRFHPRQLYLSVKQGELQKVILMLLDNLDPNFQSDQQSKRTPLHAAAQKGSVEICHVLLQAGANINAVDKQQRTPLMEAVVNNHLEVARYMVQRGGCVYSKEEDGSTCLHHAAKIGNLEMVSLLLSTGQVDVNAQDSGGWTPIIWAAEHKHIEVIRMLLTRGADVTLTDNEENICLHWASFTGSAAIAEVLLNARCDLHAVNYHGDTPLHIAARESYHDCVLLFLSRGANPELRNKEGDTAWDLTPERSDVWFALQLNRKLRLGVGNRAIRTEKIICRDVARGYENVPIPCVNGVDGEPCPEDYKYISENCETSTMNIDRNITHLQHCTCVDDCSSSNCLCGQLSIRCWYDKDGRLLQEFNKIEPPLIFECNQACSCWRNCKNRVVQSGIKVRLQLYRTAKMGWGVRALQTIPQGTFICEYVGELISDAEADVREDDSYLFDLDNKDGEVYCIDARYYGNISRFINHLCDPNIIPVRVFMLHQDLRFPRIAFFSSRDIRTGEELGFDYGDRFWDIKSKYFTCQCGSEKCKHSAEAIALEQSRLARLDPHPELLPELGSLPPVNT

[2] = Antitumor activity against human TMD8 cells harbouring […] xenografted in mouse model assessed as tumor inhibition rate at 10 mg/kg, iv administered three times a week relative to control; format: functional; design: scale not given: the % may be the effect or the level left
[3] = tested on: DOHH-2; test: Induction of cell cycle arrest in human DOHH-2 cells assessed as accumulation of cells at S phase at 1.0 uM incubated for 24 hrs by PI staining based flow cytometry analysis (reference value: 40.7%); format: functional
[4] = biological target: DNA (cytosine-5)-methyltransferase 3B (Homo sapiens, UniProt Q9UBC3); test: Inhibition of DNMT3B (unknown origin) at 5 uM preincubated for 15 mins followed by substrate and [3H-SAM] addition and measured after 60 mins by microbeta analysis relative to control; conditions: time 75.0 min
[5] = Oral bioavailability in Sprague-Dawley rat at 10 mg/kg measured upto 24 hrs by LC/MS/MS analysis; format: ADME, organism-based; conditions: Sprague-Dawley, in vivo
[6] = Subacute toxicity in Balb/C mouse assessed as effect on red blood cells at 30 mg/kg, iv administered three times in a week for 2 weeks; format: organism-based; conditions: in vivo, 336 h
[7] = tested on: TMD8; test: Induction of cell cycle arrest in human TMD8 cells assessed as accumulation of cells at G2/M phase at 0.25 uM incubated for 24 hrs by PI staining based flow cytometry analysis (reference value: 20.4%); format: functional
[8] = tested on: TMD8; test: Induction of cell cycle arrest in human TMD8 cells assessed as accumulation of cells at G0-G1 phase at 0.5 uM incubated for 24 hrs by PI staining based flow cytometry analysis (reference value: 40.7%); format: functional
[9] = Antitumor activity against human TMD8 cells harbouring […] xenografted in mouse model assessed as body weight change at 10 mg/kg, iv administered three times a week relative to control; format: functional
[10] = tested on: TMD8; test: Induction of apoptosis in human TMD8 cells assessed as early apoptotic cells at 2.5 uM measured after 48 hrs by annexin-V/FITC and PI staining based flow cytometry analysis (reference value: 9.15%); format: functional
[11] = Subacute toxicity in Balb/C mouse assessed as effect on heart at 30 mg/kg, iv administered three times in a week for 2 weeks; format: organism-based; conditions: in vivo, 336 h
[12] = tested on: DOHH-2; test: Induction of cell cycle arrest in human DOHH-2 cells assessed as accumulation of cells at G0-G1 phase at 0.25 uM incubated for 24 hrs by PI staining based flow cytometry analysis (reference value: 27.1%); format: functional
[13] = Subacute toxicity in Balb/C mouse assessed as effect on platelet at 30 mg/kg, iv administered three times in a week for 2 weeks; format: organism-based; conditions: in vivo, 336 h
[14] = tested on: DOHH-2; test: Induction of cell cycle arrest in human DOHH-2 cells assessed as accumulation of cells at G2-M phase at 0.5 uM incubated for 24 hrs by PI staining based flow cytometry analysis (reference value: 27.8%); format: functional
[15] = Terminal elimination half life in Sprague-Dawley rat at 10 mg/kg, iv measured upto 24 hrs by LC/MS/MS analysis; format: ADME, organism-based; conditions: in vivo, read-out: beta t1/2 (converted)
[16] = tested on: TMD8; test: Induction of cell cycle arrest in human TMD8 cells assessed as accumulation of cells at S phase at 0.25 uM incubated for 24 hrs by PI staining based flow cytometry analysis (reference value: 39.0%); format: functional
[17] = biological target: DNA (cytosine-5)-methyltransferase 1 (Homo sapiens, UniProt P26358); test: Inhibition of DNMT1 in human DOHH-2 cells assessed as inhibition of 5-methylcytosine level at 10 to 1000 nM incubated for 48 hrs by Western blot analysis; format: cell-based; conditions: dose 10-1000 nM
[18] = Upregulation of BAX mRNA level in human DOHH-2 cells assessed as fold change at 300 nM measured after 6 days by PCR analysis; format: functional; conditions: time 6 day
[19] = AUC (0 to t) in Sprague-Dawley rat at 10 mg/kg, po measured upto 24 hrs by LC/MS/MS analysis; format: ADME, organism-based; conditions: Sprague-Dawley, in vivo
[20] = tested on: TMD8; test: Induction of apoptosis in human TMD8 cells assessed as late apoptotic cells at 5 uM measured after 48 hrs by annexin-V/FITC and PI staining based flow cytometry analysis (reference value: 5.13%); format: functional
[21] = Subacute toxicity in Balb/C mouse assessed as effect on lung at 30 mg/kg, iv administered three times in a week for 2 weeks; format: organism-based; conditions: in vivo, 336 h

DNA (cytosine-5)-methyltransferase 1, sequence (P26358 whole entry): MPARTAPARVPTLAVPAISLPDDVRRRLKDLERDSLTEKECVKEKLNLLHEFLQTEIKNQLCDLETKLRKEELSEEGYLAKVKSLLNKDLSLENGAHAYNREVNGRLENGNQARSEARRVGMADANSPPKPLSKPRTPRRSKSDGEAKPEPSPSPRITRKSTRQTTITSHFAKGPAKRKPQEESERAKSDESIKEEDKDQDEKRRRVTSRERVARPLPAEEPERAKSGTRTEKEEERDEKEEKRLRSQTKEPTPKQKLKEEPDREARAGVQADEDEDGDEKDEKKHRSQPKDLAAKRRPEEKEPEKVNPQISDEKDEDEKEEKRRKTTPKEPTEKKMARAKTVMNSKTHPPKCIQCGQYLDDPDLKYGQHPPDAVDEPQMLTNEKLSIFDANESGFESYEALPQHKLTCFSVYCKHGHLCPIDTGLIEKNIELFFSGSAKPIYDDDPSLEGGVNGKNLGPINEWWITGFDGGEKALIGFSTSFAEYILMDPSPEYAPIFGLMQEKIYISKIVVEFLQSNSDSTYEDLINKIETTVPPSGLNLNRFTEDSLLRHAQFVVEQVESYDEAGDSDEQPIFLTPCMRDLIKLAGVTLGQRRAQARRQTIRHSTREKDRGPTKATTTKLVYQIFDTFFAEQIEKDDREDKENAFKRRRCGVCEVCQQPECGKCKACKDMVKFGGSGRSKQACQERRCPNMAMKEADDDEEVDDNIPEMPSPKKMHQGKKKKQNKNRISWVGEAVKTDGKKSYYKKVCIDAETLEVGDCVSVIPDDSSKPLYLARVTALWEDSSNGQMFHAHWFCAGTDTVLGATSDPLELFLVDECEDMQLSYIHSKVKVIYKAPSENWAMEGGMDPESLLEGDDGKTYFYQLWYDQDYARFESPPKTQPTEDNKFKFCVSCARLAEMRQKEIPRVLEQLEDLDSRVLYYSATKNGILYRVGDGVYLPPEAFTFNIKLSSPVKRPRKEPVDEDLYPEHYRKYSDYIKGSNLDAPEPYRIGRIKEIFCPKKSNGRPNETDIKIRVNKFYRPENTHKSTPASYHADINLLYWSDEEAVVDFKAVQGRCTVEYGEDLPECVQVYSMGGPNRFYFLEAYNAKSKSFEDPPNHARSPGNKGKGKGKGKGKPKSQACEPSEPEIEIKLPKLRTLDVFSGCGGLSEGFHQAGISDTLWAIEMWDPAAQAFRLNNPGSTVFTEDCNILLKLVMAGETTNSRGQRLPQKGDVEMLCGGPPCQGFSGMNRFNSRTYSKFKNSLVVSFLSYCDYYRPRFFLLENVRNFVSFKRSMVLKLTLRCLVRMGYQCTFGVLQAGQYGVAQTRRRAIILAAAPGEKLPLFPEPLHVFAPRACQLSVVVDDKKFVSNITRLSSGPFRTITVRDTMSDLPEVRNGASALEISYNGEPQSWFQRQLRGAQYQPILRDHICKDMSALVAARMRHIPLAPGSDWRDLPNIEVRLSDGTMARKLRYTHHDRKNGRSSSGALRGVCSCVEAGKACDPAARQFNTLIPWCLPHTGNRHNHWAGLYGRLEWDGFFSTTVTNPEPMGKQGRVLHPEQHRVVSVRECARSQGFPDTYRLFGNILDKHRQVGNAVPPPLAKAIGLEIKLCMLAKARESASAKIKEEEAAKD

IC50 [1]: > 20 µM
inhibition [4]: 1.1%
bioavailability [5]: 23.4%
half-life [15]: 10.8 h
inhibition [17]: Active
AUC(0-t) at 24 h [19]: 236 ng·h/mL
Structure (SMILES): CN1CCC(Nc2nc(-c3ccnc(F)c3)nc3c2ccn3CCCN2CCCC2)CC1
Activity [2]: 65.7%
Activity [3]: 19.9%
Activity [6]: Non-toxic
Activity [7]: 24.4%
Activity [8]: 39%
Activity [9]: 6.8%
Activity [10]: 23%
Activity [11]: Non-toxic
Activity [12]: 28.6%
Activity [13]: Non-toxic
Activity [14]: 29.1%
Activity [16]: 37.8%
fold change (FC) [18]: 1.93
Activity [20]: 17%
Activity [21]: Non-toxic
